{
  "source": "paper PMC6609034",
  "about": "“Unraveling the role of the secretor antigen in human rotavirus attachment to histo-blood group antigens” (PLoS Pathogens, 2019)",
  "tested_on": "rotavirus Wa strain (G1P[8]) in MA104 cells",
  "assay": "Blocking of rotavirus infection in MA104 cells (fluorescent focus assay)",
  "assay_type": "cell-based, human rotavirus",
  "settings": "sugar at 5 mg/mL",
  "description": "The G1P[8] Wa strain was tested on MA104 cells. The sugars LNB, GNB, GlcNAc, GalNAc, D-galactose and L-fucose were tested for their effect on rotavirus infectivity. The oligosaccharides were previously heat sterilized at 99°C for 10 min and then dissolved in serum-free DMEM containing 1 μg/ml trypsin. Serum-free DMEM containing […] oligosaccharide was used as a control in each experiment.\nThe effect of different mono- and disaccharides on rotavirus infectivity was assessed through standard fluorescent focus assays on MA104 cells. The dilution of Wa virus stocks that yielded ~150 focus-forming units/well was first established. Then, sugars were added during virus inoculation at a final concentration of 5 mg/ml, incubated for 1 hour, and unbound virus was removed by washing with FBS-DMEM. The cells were allowed to be infected for 16h, washed once with PBS and fixed with 100% methanol. A mouse anti-VP6 primary antibody (1:50 dilution in PBS containing 3% BSA) was added and incubation proceeded for 30 min at room temperature with gentle rotation. […] Individual fluorescence foci were counted on an inverted fluorescence microscope with a FITC-compatible filter. […] Virus titer measured in the absence of oligosaccharides was considered to be 100% infectivity, and changes in virus titer in the presence of sugars were expressed as percentage of infectivity compared with no sugar treatment.",
  "data": [
    {"smiles": "CC(=O)NC1C(O)OC(CO)C(O)C1OC1OC(CO)C(O)C(O)C1O", "note": "(stereo not drawn) [LNB, Gal-β1,3-GlcNAc]", "values": [
      {"measurement": "reduction of viral infection", "value": 33, "unit": "%"}
    ]}
  ]
}
